Species on record: Rattus norvegicus
Experiment: Open TG-GATES - Regimen: Single
Type: toxicity, organism-based, Sprague-Dawley
Design: regimen Single, gender Male, age 6 weeks
Conditions: in vivo, po, route gavage; for APTT / Bas / Eos / Fbg / Hb / Ht / MCH / MCHC / MCV / Mono / PT / Plat / RBC / Ret / WBC: tissue Blood; for ALT / CRE / DBIL / GLC / IP / K / LDH / Na / PL / RALB / TBIL / TC / TG / TP / gamma-GTP / ALP: tissue Plasma
[1] = 200 mg/kg, 3 h, dose level Middle
[2] = 200 mg/kg, 6 h, dose level Middle
[3] = 200 mg/kg, 9 h, dose level Middle
[4] = 200 mg/kg, 24 h, dose level Middle
[5] = 600 mg/kg, 3 h, dose level High
[6] = 600 mg/kg, 6 h, dose level High
[7] = 600 mg/kg, 9 h, dose level High
[8] = 600 mg/kg, 24 h, dose level High

CCN(CC)C(=S)SSC(=S)N(CC)CC
TERMINAL_BW [1]: 213.2 g | APTT [1]: 21.8 s | Bas [1]: 0% | Eos [1]: 0.8% | Fbg [1]: 313.2 mg/dL | Hb [1]: 13.4 g/dL | Ht [1]: 41.1% | MCH [1]: 20.2 pg | MCHC [1]: 32.6% | MCV [1]: 62.1 fL | Mono [1]: 4.2% | PT [1]: 16.2 s | Plat [1]: 124 x10_4/uL | RBC [1]: 662.4 x10_4/ul | Ret [1]: 7.4% | WBC [1]: 77.1 x10_2/uL | ALT [1]: 40.6 IU/L | CRE [1]: 0.1 mg/dL | DBIL [1]: 0 mg/dL | GLC [1]: 181.2 mg/dL | IP [1]: 9.4 mg/dL | K [1]: 4.1 meq/L | LDH [1]: 215.4 IU/L | Na [1]: 142 meq/L | PL [1]: 147.8 mg/dL | RALB [1]: 3.2 g/dL | TBIL [1]: 0.004 mg/dL | TC [1]: 80.8 mg/dL | TG [1]: 84.2 mg/dL | TP [1]: 5.7 g/dL | gamma-GTP [1]: 1 IU/L | TERMINAL_BW [2]: 210.4 g | APTT [2]: 22.1 s | Bas [2]: 0% | Eos [2]: 0.4% | Fbg [2]: 299.4 mg/dL | Hb [2]: 13 g/dL | Ht [2]: 40.2% | MCH [2]: 20.2 pg | MCHC [2]: 32.3% | MCV [2]: 62.4 fL | Mono [2]: 2.2% | PT [2]: 15.9 s | Plat [2]: 123.4 x10_4/uL | RBC [2]: 644.6 x10_4/ul | Ret [2]: 7.2% | WBC [2]: 67.3 x10_2/uL | ALP [2]: 1309.6 IU/L | ALT [2]: 37.2 IU/L | CRE [2]: 0.1 mg/dL | DBIL [2]: 0.004 mg/dL | GLC [2]: 194 mg/dL | IP [2]: 9.6 mg/dL | K [2]: 4.1 meq/L | LDH [2]: 192 IU/L | Na [2]: 141 meq/L | PL [2]: 125.4 mg/dL | RALB [2]: 3.1 g/dL | TBIL [2]: 0.012 mg/dL | TC [2]: 73.2 mg/dL | TG [2]: 33 mg/dL | TP [2]: 5.4 g/dL | gamma-GTP [2]: 0.8 IU/L | TERMINAL_BW [3]: 213.7 g | APTT [3]: 22.8 s | Bas [3]: 0% | Eos [3]: 0.6% | Fbg [3]: 297 mg/dL | Hb [3]: 13.1 g/dL | Ht [3]: 40.6% | MCH [3]: 20 pg | MCHC [3]: 32.3% | MCV [3]: 61.8 fL | Mono [3]: 2% | PT [3]: 15.9 s | Plat [3]: 119.2 x10_4/uL | RBC [3]: 659 x10_4/ul | Ret [3]: 7.8% | WBC [3]: 81.1 x10_2/uL | ALP [3]: 1366 IU/L | ALT [3]: 34.6 IU/L | CRE [3]: 0.1 mg/dL | DBIL [3]: 0.012 mg/dL | GLC [3]: 195 mg/dL | IP [3]: 9.1 mg/dL | K [3]: 4.1 meq/L | LDH [3]: 141.2 IU/L | Na [3]: 140.6 meq/L | PL [3]: 137.8 mg/dL | RALB [3]: 3.2 g/dL | TBIL [3]: 0.02 mg/dL | TC [3]: 80.4 mg/dL | TG [3]: 46.8 mg/dL | TP [3]: 5.5 g/dL | gamma-GTP [3]: 0.8 IU/L | TERMINAL_BW [4]: 216 g | APTT [4]: 22 s | Bas [4]: 0% | Eos [4]: 0.4% | Fbg [4]: 301.2 mg/dL | Hb [4]: 13 g/dL | Ht [4]: 39.9% | MCH [4]: 20 pg | MCHC [4]: 32.5% | MCV [4]: 61.6 fL | Mono [4]: 2.4% | PT [4]: 16.6 s | Plat [4]: 111.9 x10_4/uL | RBC [4]: 649.2 x10_4/ul | Ret [4]: 6.6% | WBC [4]: 91.8 x10_2/uL | ALP [4]: 1198.6 IU/L | ALT [4]: 38.4 IU/L | CRE [4]: 0.1 mg/dL | DBIL [4]: 0.004 mg/dL | GLC [4]: 170 mg/dL | IP [4]: 7 mg/dL | K [4]: 4.1 meq/L | LDH [4]: 160.6 IU/L | Na [4]: 142.2 meq/L | PL [4]: 131.6 mg/dL | RALB [4]: 2.9 g/dL | TBIL [4]: 0.012 mg/dL | TC [4]: 80.8 mg/dL | TG [4]: 83 mg/dL | TP [4]: 5.3 g/dL | gamma-GTP [4]: 1.2 IU/L | TERMINAL_BW [5]: 218 g | APTT [5]: 21.3 s | Bas [5]: 0% | Eos [5]: 0.8% | Fbg [5]: 293.2 mg/dL | Hb [5]: 13.4 g/dL | Ht [5]: 41.4% | MCH [5]: 20 pg | MCHC [5]: 32.4% | MCV [5]: 61.6 fL | Mono [5]: 4.2% | PT [5]: 16.2 s | Plat [5]: 126.4 x10_4/uL | RBC [5]: 674 x10_4/ul | Ret [5]: 7.9% | WBC [5]: 82 x10_2/uL | ALP [5]: 1358.2 IU/L | ALT [5]: 45.8 IU/L | CRE [5]: 0.1 mg/dL | DBIL [5]: 0.01 mg/dL | GLC [5]: 194.8 mg/dL | IP [5]: 10.1 mg/dL | K [5]: 4 meq/L | LDH [5]: 250.2 IU/L | Na [5]: 141.4 meq/L | PL [5]: 132 mg/dL | RALB [5]: 3.1 g/dL | TBIL [5]: 0.008 mg/dL | TC [5]: 76.6 mg/dL | TG [5]: 57.8 mg/dL | TP [5]: 5.6 g/dL | gamma-GTP [5]: 1 IU/L | TERMINAL_BW [6]: 211.8 g | APTT [6]: 23.9 s | Bas [6]: 0% | Eos [6]: 0.8% | Fbg [6]: 304 mg/dL | Hb [6]: 13.7 g/dL | Ht [6]: 42.2% | MCH [6]: 20.5 pg | MCHC [6]: 32.4% | MCV [6]: 63.2 fL | Mono [6]: 2.4% | PT [6]: 16.3 s | Plat [6]: 117.9 x10_4/uL | RBC [6]: 668.2 x10_4/ul | Ret [6]: 7.1% | WBC [6]: 73.5 x10_2/uL | ALP [6]: 1429.6 IU/L | ALT [6]: 37.6 IU/L | CRE [6]: 0.1 mg/dL | DBIL [6]: 0.01 mg/dL | GLC [6]: 207.2 mg/dL | IP [6]: 9.7 mg/dL | K [6]: 4.3 meq/L | LDH [6]: 182.6 IU/L | Na [6]: 140.6 meq/L | PL [6]: 134.2 mg/dL | RALB [6]: 3.1 g/dL | TBIL [6]: 0.014 mg/dL | TC [6]: 80.8 mg/dL | TG [6]: 23.4 mg/dL | TP [6]: 5.5 g/dL | gamma-GTP [6]: 1.2 IU/L | TERMINAL_BW [7]: 206.5 g | APTT [7]: 23.7 s | Bas [7]: 0.2% | Eos [7]: 0.6% | Fbg [7]: 299 mg/dL | Hb [7]: 13.3 g/dL | Ht [7]: 40.6% | MCH [7]: 20.7 pg | MCHC [7]: 32.8% | MCV [7]: 63.2 fL | Mono [7]: 2.2% | PT [7]: 16.2 s | Plat [7]: 119.4 x10_4/uL | RBC [7]: 642.4 x10_4/ul | Ret [7]: 7.3% | WBC [7]: 77.1 x10_2/uL | ALP [7]: 1243.4 IU/L | ALT [7]: 36.6 IU/L | CRE [7]: 0.1 mg/dL | DBIL [7]: 0.014 mg/dL | GLC [7]: 200.4 mg/dL | IP [7]: 8.9 mg/dL | K [7]: 4.2 meq/L | LDH [7]: 184 IU/L | Na [7]: 140.6 meq/L | PL [7]: 136 mg/dL | RALB [7]: 3.2 g/dL | TBIL [7]: 0.02 mg/dL | TC [7]: 79.2 mg/dL | TG [7]: 57.4 mg/dL | TP [7]: 5.6 g/dL | gamma-GTP [7]: 1 IU/L | TERMINAL_BW [8]: 222.1 g | APTT [8]: 21.6 s | Bas [8]: 0% | Eos [8]: 0.8% | Fbg [8]: 290.2 mg/dL | Hb [8]: 12.7 g/dL | Ht [8]: 39% | MCH [8]: 19.5 pg | MCHC [8]: 32.4% | MCV [8]: 60.1 fL | Mono [8]: 2.2% | PT [8]: 16 s | Plat [8]: 115.3 x10_4/uL | RBC [8]: 649.8 x10_4/ul | Ret [8]: 6.8% | WBC [8]: 94.6 x10_2/uL | ALP [8]: 1144.8 IU/L | ALT [8]: 40.2 IU/L | CRE [8]: 0.1 mg/dL | DBIL [8]: 0.014 mg/dL | GLC [8]: 177.8 mg/dL | IP [8]: 7.7 mg/dL | K [8]: 3.9 meq/L | LDH [8]: 183.4 IU/L | Na [8]: 142.4 meq/L | PL [8]: 149.4 mg/dL | RALB [8]: 3.1 g/dL | TBIL [8]: 0.024 mg/dL | TC [8]: 91 mg/dL | TG [8]: 92.6 mg/dL | TP [8]: 5.5 g/dL | gamma-GTP [8]: 1 IU/L

— ChEMBL document CHEMBL3885861, “Open TG-GATES”
